In publication PMC6538516 (Journal of Veterinary Science, 2019):
Read-outs that look alike come from different tables or passages of the source. Each block holds one compound with its values, some of them ahead of it.

Experiments:
[1] = humans; ref 14 (Wijnands et al.); cited from earlier work
CYP1A = conditions: hepatic microsomes from Beagles; ref 13 (Regmi et al.); cited from earlier work
[2] = rats, intramuscular injection; ref 9 (Yamasaki et al.); cited from earlier work
[3] = p-acetaminophen injected into porcine animals; ref 7 (Qiu et al.); cited from earlier work
[4] = Pharmacokinetics of p-acetaminophen in Bactrian camels, substrate only; format: in vivo, Bactrian camel; conditions: Group 1, substrate only, 4 mg/kg intramuscular
[5] = healthy cattle, oral administration; ref 8 (Sawaguchi et al.); cited from earlier work
CYP1A enzyme = format: in vivo, Bactrian camel; conditions: Group 2, inhibitor (lomefloxacin) + substrate; p-acetaminophen 4 mg/kg intramuscular

SMILES: CCn1cc(C(=O)O)c(=O)c2cc(F)c(N3CCNCC3)nc21 [enoxacin]
- effect on total body clearance of theophylline [1]: significantly decreased

SMILES: CCN1CCN(c2cc3c(cc2F)c(=O)c(C(=O)O)cn3C2CC2)CC1 [enrofloxacin]
- CYP1A-inhibiting effect (CYP1A): inhibited CYP1A in a non-competitive manner

SMILES: CCn1cc(C(=O)O)c(=O)c2cc(F)c(N3CCNCC3)cc21 [norfloxacin]
- CYP1A-inhibiting effect (CYP1A): inhibited CYP1A in a non-competitive manner

SMILES: CC1COc2c(N3CCN(C)CC3)c(F)cc3c(=O)c(C(=O)O)cn1c23 (centres unmarked) [ofloxacin]
- CYP1A-inhibiting effect (CYP1A): inhibited CYP1A in a non-competitive manner

SMILES: C[C@@H]1CN(c2c(F)c(F)c3c(=O)c(C(=O)O)cn(C4CC4)c3c2F)C[C@H](C)N1 [orbifloxacin]
- CYP1A-inhibiting effect (CYP1A): inhibited CYP1A in a non-competitive manner

- Vd (volume of distribution under steady-state) [4]: 4,416.8 ± 138.23 mL/kg
- AUC0-t ([4]; plasma): 5.73 ± 0.31 µg·h/mL
- AUC0-∞ ([4]; plasma): 6.01 ± 0.63 µg·h/mL
- Cmax ([4]; plasma): 0.96 ± 0.43 µg/mL
- Tmax ([4]; plasma): 1.70 ± 0.51 h
- AUC0-t (CYP1A enzyme): 8.88 ± 0.23 µg·h/mL
- AUC0-∞ (CYP1A enzyme): 9.15 ± 0.63 µg·h/mL
- Cmax (CYP1A enzyme): 1.22 ± 0.66 µg/mL
- Tmax (CYP1A enzyme): 50 ± 22.2 min
- Vd (volume of distribution under steady-state) (CYP1A enzyme): 3,934.0 ± 90.03 mL/kg
SMILES: CC(=O)Nc1ccc(O)cc1 [p-acetaminophen]
- MRT [2]: 24 ± 1.8 min
- T1/2 [2]: 18 ± 1.2 min
- AUC0-t [3]: 23.95 ± 6.98 µg·h/mL
- T1/2 [3]: 1.76 ± 0.91 h
- Tmax [3]: 24.6 ± 7.8 min
- MRT [5]: 4.70 ± 0.93 h
- T1/2 [5]: 2.41 ± 0.58 h
- Tmax [5]: 1.40 ± 0.55 h
